Results on three molecules are retold here after ChEMBL document CHEMBL5370566, “Flindissone, a Limonoid Isolated from Trichilia prieuriana, Is an LXR Agonist” (J Nat Prod, 2023).

Active and inactive are the calls of the source. The rule behind the calls is not given here.

Data set [1] has as its target T1, Liver X receptor (Homo sapiens) (UniProt Q13133+P55055). Kind of data set: Agonist activity at LXR in human THP-1 cells assessed as increase of ABCA1 protein expression level at 1 to 10 uM by Western blot analysis. It is filed as cell-based. The settings on record: filed as agonist, dose 1-10 µM.
For data set [2], the system named is HepG2. Kind of data set: Effect on LDLR mRNA expression level in human HepG2 cells at 1 to 10 uM by RT-qPCR analysis. It is filed as functional, cell-based. The conditions noted are these: dose 1-10 µM. (In general: In qPCR the cycle at which signal appears reflects the starting amount.)
In data set [3] the target is T2, Liver X receptor (Homo sapiens, UniProt Q13133+P55055).
T2 sequence (Q13133 whole entry): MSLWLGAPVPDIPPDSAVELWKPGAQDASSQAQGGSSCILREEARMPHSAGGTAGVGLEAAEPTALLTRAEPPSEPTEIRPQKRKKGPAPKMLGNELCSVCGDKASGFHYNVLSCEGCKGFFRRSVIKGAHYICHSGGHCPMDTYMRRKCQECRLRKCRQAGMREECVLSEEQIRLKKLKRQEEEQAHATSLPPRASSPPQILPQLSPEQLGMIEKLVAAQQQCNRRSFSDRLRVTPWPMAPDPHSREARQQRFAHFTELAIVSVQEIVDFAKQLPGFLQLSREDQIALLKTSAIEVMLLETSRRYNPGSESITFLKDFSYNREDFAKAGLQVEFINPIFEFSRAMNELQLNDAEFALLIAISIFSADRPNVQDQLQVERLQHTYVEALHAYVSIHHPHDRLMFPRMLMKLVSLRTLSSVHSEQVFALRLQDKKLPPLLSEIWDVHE
T2 sequence (P55055 whole entry): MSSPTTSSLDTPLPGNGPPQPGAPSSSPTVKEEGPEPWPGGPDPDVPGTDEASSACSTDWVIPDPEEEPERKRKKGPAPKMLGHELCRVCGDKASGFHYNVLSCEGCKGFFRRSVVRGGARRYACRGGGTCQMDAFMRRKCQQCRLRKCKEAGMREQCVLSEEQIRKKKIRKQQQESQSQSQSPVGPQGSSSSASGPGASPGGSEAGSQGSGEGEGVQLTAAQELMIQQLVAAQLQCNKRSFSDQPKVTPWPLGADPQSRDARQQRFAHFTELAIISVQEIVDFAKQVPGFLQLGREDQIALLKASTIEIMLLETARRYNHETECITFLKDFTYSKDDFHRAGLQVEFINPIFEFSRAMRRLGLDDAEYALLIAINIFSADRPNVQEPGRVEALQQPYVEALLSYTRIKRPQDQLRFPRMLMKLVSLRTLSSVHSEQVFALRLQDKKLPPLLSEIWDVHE
Description: Agonist activity at LXR in human HepG2 cells assessed as increase in SREBF1 mRNA expression level at 1 to 10 uM measured after 72 hrs by RT-qPCR analysis. The conditions noted are these: hepg2, 72 h, dose 1-10 µM. It is filed as toxicity, cell-based.

The target in data set [4] is T3, Oxysterols receptor LXR-alpha (Homo sapiens, UniProt Q13133).
T3 sequence (Q13133 whole entry): T2 sequence (Q13133 whole entry)
Description: Agonist activity at full length human LXRalpha transfected in HEK293T cells co-expressing ABCA1 assessed as increase in luciferase activity measured after 18 hrs by reporter gene assay. It is filed as cell-based.

The target of data set [5] is T4, Oxysterols receptor LXR-beta (Homo sapiens, UniProt P55055).
T4 sequence (P55055 whole entry): T2 sequence (P55055 whole entry)
Description: Agonist activity at full length human LXRbeta transfected in HEK293T cells co-expressing ABCA1 assessed as increase in luciferase activity measured after 18 hrs by luciferase reporter gene assay. It is filed as cell-based. (In general: In a reporter assay the amount or activity of a reporter protein is the signal.)

The target in data set [6] is T2, Liver X receptor. Kind of data set: Agonist activity at LXR in human HepG2 cells assessed as increase in SREBF1 protein expression level at 1 to 10 uM measured after 72 hrs by Western blot analysis. It is filed as toxicity, cell-based. The conditions noted are these: hepg2, 72 h, dose 1-10 µM. In general terms: Immunoblotting shows a protein as a band on a membrane.

Data set [7] concerns the target T1, Liver X receptor (Homo sapiens). Description: Agonist activity at LXR in human THP-1 cells assessed as increase of ABCG1 mRNA expression level at 1 to 10 uM by RT-qPCR analysis. The data set is classed as cell-based. The settings on record: filed as agonist, dose 1-10 µM.
Data set [8] deals with T5, Oxysterols receptor LXR-alpha (Homo sapiens) (UniProt Q13133).
T5 sequence (whole entry): T2 sequence (Q13133 whole entry)
Kind of data set: Agonist activity at human LXRalpha-LBD transfected in HEK293T cells co-expressing Gal4-DBD assessed as increase in luciferase activity measured after 18 hrs by reporter gene assay. The conditions noted are these: filed as agonist, dose 1-10 µM. It is filed as cell-based.

In data set [9] the target is T6, Oxysterols receptor LXR-beta (Homo sapiens) (UniProt P55055).
T6 sequence (whole entry): T2 sequence (P55055 whole entry)
Description: Agonist activity at human LXRbeta-LBD transfected in HEK293T cells co-expressing Gal4-DBD assessed as increase in luciferase activity measured after 18 hrs by reporter gene assay. It is filed as cell-based. The settings on record: filed as agonist, dose 1-10 µM.

Another data set concerns HEK-293T. Kind of data set: Cytotoxicity against HEK293T cells transfected with LXRalpha assessed as cell viability at >10 uM measured after 18 hrs by luciferase reporter gene assay. The data set is classed as toxicity, cell-based. The settings on record: human.
For the next data set, the species on record is Homo sapiens. Kind of data set: Activation at RXR (unknown origin).
Data set [10] concerns the target T7, Bile acid receptor (Homo sapiens) (UniProt Q96RI1).
T7 sequence (whole entry): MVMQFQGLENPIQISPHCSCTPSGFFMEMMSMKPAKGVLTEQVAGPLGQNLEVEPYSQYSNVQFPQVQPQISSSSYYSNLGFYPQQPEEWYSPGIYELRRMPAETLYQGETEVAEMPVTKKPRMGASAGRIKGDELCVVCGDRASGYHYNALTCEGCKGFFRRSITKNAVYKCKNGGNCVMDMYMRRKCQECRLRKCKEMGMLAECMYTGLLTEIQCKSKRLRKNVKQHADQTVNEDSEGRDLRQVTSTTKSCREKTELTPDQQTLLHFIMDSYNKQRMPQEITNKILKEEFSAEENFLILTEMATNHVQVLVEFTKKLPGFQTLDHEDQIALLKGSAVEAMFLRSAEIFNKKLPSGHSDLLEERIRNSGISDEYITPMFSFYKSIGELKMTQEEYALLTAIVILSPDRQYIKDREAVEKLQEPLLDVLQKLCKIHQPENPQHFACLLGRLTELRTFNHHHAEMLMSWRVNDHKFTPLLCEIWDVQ
Description: Activation at FXR (unknown origin).

Data set [11] has as its target T8, Nuclear receptor ROR-gamma (Homo sapiens) (UniProt P51449).
T8 sequence (whole entry): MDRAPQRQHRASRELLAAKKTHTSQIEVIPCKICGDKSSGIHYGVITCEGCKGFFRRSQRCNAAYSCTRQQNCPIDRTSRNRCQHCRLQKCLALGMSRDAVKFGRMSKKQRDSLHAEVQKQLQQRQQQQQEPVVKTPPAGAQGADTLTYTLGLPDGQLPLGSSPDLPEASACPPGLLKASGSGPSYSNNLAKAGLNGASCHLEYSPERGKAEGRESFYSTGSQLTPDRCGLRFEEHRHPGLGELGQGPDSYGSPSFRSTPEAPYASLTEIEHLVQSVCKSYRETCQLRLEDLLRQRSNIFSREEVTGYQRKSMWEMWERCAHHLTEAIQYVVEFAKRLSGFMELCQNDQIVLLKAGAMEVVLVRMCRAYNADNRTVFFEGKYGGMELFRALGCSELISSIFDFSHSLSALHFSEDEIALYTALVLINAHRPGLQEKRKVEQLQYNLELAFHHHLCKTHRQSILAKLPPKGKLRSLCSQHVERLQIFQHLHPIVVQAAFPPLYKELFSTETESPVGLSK
Kind of data set: Activation at RORgamma (unknown origin).

The target of data set [12] is T1, Liver X receptor (Homo sapiens). Description: Agonist activity at LXR in cholesterol treated human THP-1 cells assessed as stimulation of plasma mediated cholesterol efflux pre incubated for 24 hrs followed by plasma addition measured after 6 hrs by liquid scintillation counting analysis. The data set is classed as cell-based. The settings on record: filed as agonist, dose 1-10 µM, time 30.0 hrs.

The target is the same in data set [13]. Kind of data set: Agonist activity at LXR in human THP-1 cells assessed as increase of ABCA1 mRNA expression level at 1 to 10 uM by RT-qPCR analysis. The conditions noted are these: filed as agonist, dose 1-10 µM. The data set is classed as cell-based.
The target is the same in data set [14]. Description: Agonist activity at LXR in cholesterol treated human THP-1 cells assessed as stimulation of plasma mediated cholesterol efflux at 5 uM pre incubated for 24 hrs followed by plasma addition measured after 6 hrs by liquid scintillation counting analysis. The settings on record: filed as agonist. It is filed as cell-based.
Data set [15] has the same target. Kind of data set: Agonist activity at LXR in human HepG2 cells assessed as increase of IDOL mRNA expression level at 10 uM by RT-qPCR analysis. It is filed as cell-based. The conditions noted are these: filed as agonist.
Data set [16] concerns the target T2, Liver X receptor. Description: Agonist activity at LXR in human HepG2 cells assessed as reduction in SREBP1c proteolytic processing measured after 72 hrs by Western blot analysis. It is filed as toxicity, cell-based. The settings on record: hepg2, 72 h, dose 1-10 µM.
Data set [17] has as its target T2, Liver X receptor. Description: Agonist activity at LXR in human HepG2 cells assessed as reduction in HMGCR mRNA expression measured after 72 hrs by RT-qPCR analysis. The settings on record: hepg2, 72 h, dose 1-10 µM. The data set is classed as toxicity, cell-based.
Data set [18] concerns HepG2. Kind of data set: Effect on LDLR mRNA expression level in human HepG2 cells at 5 uM by RT-qPCR analysis. It is filed as functional, cell-based.
The target of data set [19] is T2, Liver X receptor. Kind of data set: Agonist activity at LXR in human HepG2 cells assessed as reduction in SREBP1c proteolytic processing upto 10 uM measured after 72 hrs by Western blot analysis. It is filed as toxicity, cell-based. The settings on record: hepg2, 72 h.
In data set [20] the target is T2, Liver X receptor. Kind of data set: Agonist activity at LXR in human HepG2 cells assessed as reduction in HMGCR mRNA expression upto 10 uM measured after 72 hrs by RT-qPCR analysis. It is filed as toxicity, cell-based. The conditions noted are these: hepg2, 72 h.
The test system of data set [21] is HepG2. Description: Effect on LDLR mRNA expression level in human HepG2 cells at 1 uM by RT-qPCR analysis. It is filed as functional, cell-based.
Data set [22] deals with T2, Liver X receptor. Kind of data set: Agonist activity at LXR in human HepG2 cells assessed as increase in cellular lipid content at 1 uM measured after 72 hrs by Oil Red O staining based assay. It is filed as toxicity, cell-based. The settings on record: hepg2, 72 h.

Take `CC(C)=C[C@@H]1C[C@@H]([C@@H]2CC[C@]3(C)C4=CC[C@H]5C(C)(C)C(=O)CC[C@]5(C)[C@H]4CC[C@@]23C)[C@H](O)O1`: the outcome in [1], in [7], in data set [12], in data set [13], in [14] and in data set [15] was Active. Moreover, the outcome (in the data set on HepG2 [2]; in the data set listed under Homo sapiens; in [10]; in [11]) was inactive. Also, the Activity result was “Not Active” at Liver X receptor [3]; “Not Active” at Liver X receptor [6]; “Dose-Dependent Effect” in data set [8]; “Dose-Dependent Effect” in [9]; “Toxic” in the data set on HEK-293T; “Dose-Dependent Effect” at Liver X receptor [16]. Also, on Liver X receptor [17], the Activity entry is “Dose-Dependent Effect”. Besides, the EC50 – broadly, the concentration giving half of the maximal effect – in [4] stood at 1.6 µM; in data set [5], 5.3 µM.
Take `CC(C)CC[C@@H](O)[C@@H](C)[C@H]1CC[C@H]2[C@@H]3CC=C4C[C@@H](O)CC[C@]4(C)[C@H]3CC[C@]12C` [22(R)-HYDROXYCHOLESTEROL]: the outcome with HepG2 [18] was inactive. In addition, the EC50 was 1.2 µM in data set [4] and 1.5 µM in data set [5]. Moreover, the Activity entry is recorded as “Not Active” on Liver X receptor [19] and “Active” on Liver X receptor [20].
`O=C(O)Cc1cccc(OCCCN(Cc2cccc(C(F)(F)F)c2Cl)CC(c2ccccc2)c2ccccc2)c1`: the outcome in the data set on HepG2 [21] was inactive. Moreover, the Activity entry at Liver X receptor [22] is “Toxic”.
